Measured values reported in patent US11135320B2, “Radioligands for pretargeted pet imaging and methods of their therapeutic use” (priority 2015, dated 2021).
Several values for one entry are separate records, joined by “and”; a condition that tells them apart may be missing. Identical values can stand only once.

Experiments:
[1] = Acute biodistribution of ^64Cu-labeled tetrazine radioligands in healthy mice; format: in vivo, athymic nude mice; conditions: for Large Intestine activity concentration / Small Intestine activity concentration / Stomach activity concentration: contents not removed
Protocol: (§1) Mice were administered ^64Cu-Tz-NOTA (25-30 μCi in 200 μL 0.9% sterile saline) via intravenous tail vein injection. Animals (n=4 per group) were euthanized by CO2(g) asphyxiation at 1, 4, and 24 h after injection. After asphyxiation, tissues were removed, rinsed in water, dried in air for 5 min, weighed, and counted in a gamma counter calibrated for ^64Cu. Counts were converted into activity using a calibration curve generated from known standards. Count data were background- and decay-corrected to the time of injection, and the percent injected dose per gram (% ID/g) for each tissue sample was calculated by normalization to the total activity injected. Contents within the stomach, small intestine, and large intestine were not removed for the measurements.
as §1, with “^64Cu-Tz-PEG7-NOTA” for “^64Cu-Tz-NOTA”
as §1, with “^64Cu-Tz-SarAr” for “^64Cu-Tz-NOTA”
as §1, with “Healthy female athymic nude mice (n=4 per radioligand) were” for “Mice were”, “administered ^64Cu-Tz-PEG7-NOTA or ^64Cu-Tz-SarAr” for “administered ^64Cu-Tz-NOTA”, “vein injection (t=0).” for “vein injection.”, “4, 12,” for “4,”, “injected.” for “injected. Contents within the stomach, small intestine, and large intestine were not removed for the measurements.”

[2] = PET imaging with ^64Cu-labeled tetrazine radioligands in healthy mice; format: in vivo, athymic nude mice
Protocol: All PET imaging experiments were performed on an Inveon PET/CT scanner (Siemens Healthcare Global). Healthy female athymic nude mice (n=4 per radioligand) were administered ^64Cu-Tz-NOTA, ^64Cu-Tz-PEG7-NOTA, or ^64Cu-Tz-SarAr (300-350 μCi in 200 μL 0.9% sterile saline) via intravenous tail vein injection (t=0). Approximately 5 minutes prior to the PET images, mice were anesthetized by inhalation of 2% isoflurane (Baxter Healthcare, Deerfield, Ill.)/oxygen gas mixture and placed on the scanner bed; anesthesia was maintained using 1% isoflurane/gas mixture. Static scans were recorded at various time points after injection with a minimum of 30 million coincident events (10-30 min total scan time). An energy window of 350-700 keV and a coincidence timing window of 6 ns were used. Data were sorted into 2-dimensional histograms by Fourier re-binning, and the images were reconstructed using a two-dimensional ordered subset expectation maximization (2DOSEM) algorithm (16 subsets, 4 iterations) into a 128×128×159 (0.78×0.78×0.80 mm) matrix. The image data was normalized to correct for non-uniformity of response of the PET, dead-time count losses, positron branching ratio, and physical decay to the time of injection but no attenuation, scatter, or partial-volume averaging correction was applied. Activity concentrations (percentage of dose per gram of tissue [% ID/g]) and maximum intensity projections were determined by conversion of the counting rates from the reconstructed images. All of the resulting PET images were analyzed using ASIPro VM™ software.

SMILES	Blood activity concentration ([1]; 1 h p.i.) [% ID/g]	Bone activity concentration ([1]; 1 h p.i.) [% ID/g]	Heart activity concentration ([1]; 1 h p.i.) [% ID/g]	Kidney activity concentration ([1]; 1 h p.i.)	Liver activity concentration ([1]; 1 h p.i.) [% ID/g]	Lung activity concentration ([1]; 1 h p.i.) [% ID/g]	Muscle activity concentration ([1]; 1 h p.i.) [% ID/g]	Spleen activity concentration ([1]; 1 h p.i.) [% ID/g]	Large Intestine activity concentration ([1]; 1 h p.i.) [% ID/g]	Small Intestine activity concentration ([1]; 1 h p.i.) [% ID/g]	Stomach activity concentration ([1]; 1 h p.i.) [% ID/g]	Blood activity concentration ([1]; 4 h p.i.) [% ID/g]	Bone activity concentration ([1]; 4 h p.i.) [% ID/g]	Heart activity concentration ([1]; 4 h p.i.) [% ID/g]	Kidney activity concentration ([1]; 4 h p.i.)	Liver activity concentration ([1]; 4 h p.i.) [% ID/g]	Lung activity concentration ([1]; 4 h p.i.) [% ID/g]	Muscle activity concentration ([1]; 4 h p.i.) [% ID/g]	Spleen activity concentration ([1]; 4 h p.i.) [% ID/g]	Large Intestine activity concentration ([1]; 4 h p.i.)	other results
O=C([O-])CN1CCN(CC(=O)[O-])CC(Cc2ccc(NC(=O)CCCC(=O)NCc3ccc(-c4nncnn4)cc3)cc2)N(CC(=O)[O-])CC1.[64Cu+2] (stereo not drawn) [^64Cu-Tz-NOTA]	0.23 ± 0.01	0.10 ± 0.03	0.10 ± 0.02	0.53 ± 0.09 % ID/g	1.45 ± 0.39	0.38 ± 0.06	0.04 ± 0.02	0.15 ± 0.05	11.58 ± 2.19	3.14 ± 1.47	0.12 ± 0.04	0.13 ± 0.01	0.07 ± 0.04	0.11 ± 0.02	0.33 ± 0.07 % ID/g	0.42 ± 0.13	0.27 ± 0.08	0.03 ± 0.02	0.09 ± 0.02	10.0±1.3 % ID/g and 10.03 ± 1.33 % ID/g	Small Intestine activity concentration ([1]; 4 h p.i.): 0.17 ± 0.07 % ID/g; Stomach activity concentration ([1]; 4 h p.i.): 0.05 ± 0.03 % ID/g; Blood activity concentration ([1]; 24 h p.i.): 0.07 ± 0.01 % ID/g; Bone activity concentration ([1]; 24 h p.i.): 0.03 ± 0.01 % ID/g; Heart activity concentration ([1]; 24 h p.i.): 0.09 ± 0.01 % ID/g; Kidney activity concentration ([1]; 24 h p.i.): 0.22 ± 0.07 % ID/g; Liver activity concentration ([1]; 24 h p.i.): 0.21 ± 0.06 % ID/g; Lung activity concentration ([1]; 24 h p.i.): 0.21 ± 0.02 % ID/g; Muscle activity concentration ([1]; 24 h p.i.): 0.03 ± 0.03 % ID/g; Spleen activity concentration ([1]; 24 h p.i.): 0.08 ± 0.02 % ID/g; Large Intestine activity concentration ([1]; 24 h p.i.): 1.4±0.7 % ID/g and 1.37 ± 0.65 % ID/g; Small Intestine activity concentration ([1]; 24 h p.i.): 0.10 ± 0.02 % ID/g; Stomach activity concentration ([1]; 24 h p.i.): 0.18 ± 0.11 % ID/g; excretion pathway (PET imaging) [2]: eliminated somewhat sluggishly through the gastrointestinal pathway
O=C(O)CN1CCN(CC(=O)O)CC(Cc2ccc(NC(=S)NCCOCCOCCOCCOCCOCCOCCOCCNC(=O)CCCC(=O)NCc3ccc(-c4nncnn4)cc3)cc2)N(CC(=O)O)CC1.[64Cu] (stereo not drawn) [^64Cu-Tz-PEG7-NOTA]	0.38 ± 0.14	0.09 ± 0.06	0.17 ± 0.02	1.5±0.2 % ID/g and 1.51 ± 0.24 % ID/g	0.77 ± 0.11	0.49 ± 0.11	0.05 ± 0.01	0.19 ± 0.01	6.35 ± 0.69	0.5 ± 0.26	0.18 ± 0.06	0.26 ± 0.14	0.07 ± 0.02	0.18 ± 0.03	1.2±0.4 % ID/g and 1.23 ± 0.39 % ID/g	0.63 ± 0.2	0.35 ± 0.13	0.03 ± 0.02	0.14 ± 0.02	4.9±0.7 % ID/g and 4.91 ± 0.71 % ID/g	Small Intestine activity concentration ([1]; 4 h p.i.): 0.3 ± 0.14 % ID/g; Stomach activity concentration ([1]; 4 h p.i.): 0.36 ± 0.25 % ID/g; Blood activity concentration ([1]; 24 h p.i.): 0.08 ± 0.01 % ID/g; Bone activity concentration ([1]; 24 h p.i.): 0.06 ± 0.01 % ID/g; Heart activity concentration ([1]; 24 h p.i.): 0.09 ± 0.01 % ID/g; Kidney activity concentration ([1]; 24 h p.i.): 0.86 ± 0.11 % ID/g; Liver activity concentration ([1]; 24 h p.i.): 0.32 ± 0.11 % ID/g; Lung activity concentration ([1]; 24 h p.i.): 0.17 ± 0.03 % ID/g; Muscle activity concentration ([1]; 24 h p.i.): 0.02 ± 0.01 % ID/g; Spleen activity concentration ([1]; 24 h p.i.): 0.12 ± 0.01 % ID/g; Large Intestine activity concentration ([1]; 24 h p.i.): 0.40 ± 0.15 % ID/g; Small Intestine activity concentration ([1]; 24 h p.i.): 0.10 ± 0.01 % ID/g; Stomach activity concentration ([1]; 24 h p.i.): 0.09 ± 0.02 % ID/g; excretion pathway (PET imaging) [2]: excretion through both the intestines and the kidneys
NC12CNCCNCC(NCc3ccc(CNC(=O)CCCC(=O)NCc4ccc(-c5nncnn5)cc4)cc3)(CNCCNC1)CNCCNC2.[64Cu+2] [^64Cu-Tz-SarAr]	0.42 ± 0.11	0.12 ± 0.03	0.22 ± 0.06	2.3±0.4 % ID/g and 2.34 ± 0.35 % ID/g	0.72 ± 0.03	0.32 ± 0.06	0.05 ± 0.03	0.38 ± 0.06	0.07±0.01	0.29 ± 0.21	0.24 ± 0.14	0.15 ± 0.01	0.09 ± 0.01	0.12 ± 0.02	1.57 ± 0.19 % ID/g	0.42 ± 0.24	0.31 ± 0.09	0.04 ± 0.01	0.2 ± 0.05	0.08 ± 0.03 % ID/g	Small Intestine activity concentration ([1]; 4 h p.i.): 0.16 ± 0.03 % ID/g; Stomach activity concentration ([1]; 4 h p.i.): 0.2 ± 0.1 % ID/g; Blood activity concentration ([1]; 24 h p.i.): 0.06 ± 0.01 % ID/g; Bone activity concentration ([1]; 24 h p.i.): 0.08 ± 0.02 % ID/g; Heart activity concentration ([1]; 24 h p.i.): 0.08 ± 0.02 % ID/g; Kidney activity concentration ([1]; 24 h p.i.): 1.26 ± 0.41 % ID/g; Liver activity concentration ([1]; 24 h p.i.): 0.28 ± 0.07 % ID/g; Lung activity concentration ([1]; 24 h p.i.): 0.24 ± 0.06 % ID/g; Muscle activity concentration ([1]; 24 h p.i.): 0.03 ± 0.01 % ID/g; Spleen activity concentration ([1]; 24 h p.i.): 0.21 ± 0.04 % ID/g; Large Intestine activity concentration ([1]; 24 h p.i.): 0.07 ± 0.01 % ID/g; Small Intestine activity concentration ([1]; 24 h p.i.): 0.07 ± 0.01 % ID/g; Stomach activity concentration ([1]; 24 h p.i.): 0.05 ± 0.01 % ID/g; excretion pathway (PET imaging) [2]: cleared quickly and cleanly through the urinary tract
